SMILES strings stand for the structures.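 Tested at 5 concentrations; 48 h exposure; 96-well plates; endpoints linearly interpolated, else capped at highest concentration. GI50 marks 50% less growth. TGI is the concentration that stops growth completely.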

Test systems include HCT-116 colon; HT29 colon; IGROV1 ovarian; OVCAR-8 ovarian; RPMI-8226 leukemia; SK-MEL-28 melanoma; SN12C renal; SNB-19 CNS; TK-10 renal; UACC-62 melanoma.
Holding throughout (assay): NCI tumour cell line growth inhibition, 48 h

On to `CCOC(=O)c1c(C)n(Cc2ccc(Cl)cc2Cl)c2c1cc1oc(=O)c(=O)n3c(Cc4ccccc4)nc2c13`, for which the GI50 with HCT-116 colon was 2.05 µM; in the assay on HT29 colon, 4.65 µM; in the assay with IGROV1 ovarian, 2.11 µM; with OVCAR-8 ovarian it was 5.22 µM; in the assay on RPMI-8226 leukemia, 1.71 µM; in the assay with SK-MEL-28 melanoma, 11 µM. Further, the GI50 with SN12C renal is 2.22 µM; in the assay on SNB-19 CNS, 6.12 µM; with TK-10 renal, 2.64 µM; in the assay with UACC-62 melanoma, 14.5 µM. Further, the TGI in the assay on HCT-116 colon is 4.87 µM; with HT29 colon it was 17.4 µM; in the assay with IGROV1 ovarian it was 15.2 µM; in the assay on OVCAR-8 ovarian, 25.8 µM; with RPMI-8226 leukemia it was 3.57 µM; in the assay on SK-MEL-28 melanoma it was 24.9 µM. Moreover, the TGI in the assay with SN12C renal stood at 4.56 µM; in the assay with SNB-19 CNS, 20.9 µM; with TK-10 renal it was 6.95 µM; in the assay with UACC-62 melanoma it was 28.2 µM.

For the molecule `COc1cc2cc(Oc3ccc(NC(=O)c4ccc(Cl)c(C(F)(F)F)c4)cc3)c(C)nc2cc1OC`, the GI50 is 4.18 µM with HCT-116 colon; 10.3 µM in the assay on HT29 colon; 35.5 µM in the assay on IGROV1 ovarian; 22.9 µM in the assay on OVCAR-8 ovarian; 5.43 µM in the assay on RPMI-8226 leukemia; 30.3 µM with SK-MEL-28 melanoma. The GI50 is 13.2 µM with SN12C renal, 24.6 µM in the assay on SNB-19 CNS, 12.4 µM in the assay on TK-10 renal and 18.2 µM with UACC-62 melanoma. Also, the TGI is 88.9 µM with HCT-116 colon; above 100 µM in the assay on HT29 colon; above 100 µM in the assay on IGROV1 ovarian; above 100 µM in the assay with OVCAR-8 ovarian; 32.7 µM in the assay on RPMI-8226 leukemia; above 100 µM in the assay with SK-MEL-28 melanoma. The TGI in the assay on SN12C renal, in the assay on SNB-19 CNS, in the assay on TK-10 renal and with UACC-62 melanoma was above 100 µM in each case.

As for `Cc1cc(N2CCCC2)nc(N(CCCNc2ccnc3cc(Cl)ccc23)Cc2ccc3c(c2)OCO3)n1`, the GI50 with HCT-116 colon was 0.511 µM; in the assay on HT29 colon, 0.541 µM; in the assay on IGROV1 ovarian, 1.38 µM; in the assay with OVCAR-8 ovarian it was 1.8 µM; in the assay with RPMI-8226 leukemia, 0.322 µM; in the assay on SK-MEL-28 melanoma, 1.3 µM. Also, the GI50 is 1.76 µM with SN12C renal, 2.45 µM in the assay on SNB-19 CNS, 2.25 µM in the assay on TK-10 renal and 1.78 µM in the assay on UACC-62 melanoma. Besides, the TGI in the assay with HCT-116 colon was 3.3 µM; in the assay on HT29 colon, 2.83 µM; in the assay on IGROV1 ovarian, 4.33 µM; with OVCAR-8 ovarian it was 5.41 µM; with RPMI-8226 leukemia, 1.72 µM; in the assay with SK-MEL-28 melanoma it was 2.74 µM. Besides, the TGI in the assay with SN12C renal is 11.3 µM; in the assay with SNB-19 CNS it was 12.7 µM; with TK-10 renal it was 6.81 µM; in the assay with UACC-62 melanoma, 3.38 µM.

As to `N#Cc1ccccc1NC(=O)c1ccccc1`, the TGI with HCT-116 colon, in the assay with HT29 colon, with IGROV1 ovarian, with OVCAR-8 ovarian, in the assay on RPMI-8226 leukemia and in the assay with SK-MEL-28 melanoma was above 100 µM in each case. The TGI with SN12C renal, in the assay on SNB-19 CNS, in the assay on TK-10 renal and in the assay with UACC-62 melanoma was above 100 µM each time.

Take `CC(=O)NC(CCCN(Cc1ccccc1)C(=O)N(CCCl)N=O)C(=O)NCc1ccccc1` (stereo not given): the TGI in the assay on HCT-116 colon, in the assay on HT29 colon, in the assay with IGROV1 ovarian, with OVCAR-8 ovarian, in the assay with RPMI-8226 leukemia and with SK-MEL-28 melanoma was above 100 µM in each case. Moreover, the TGI in the assay on SN12C renal, in the assay on SNB-19 CNS, in the assay on TK-10 renal and in the assay on UACC-62 melanoma was above 100 µM in each case.

For the molecule `O=C(NN1C(=O)CSC1c1ccc(Cl)cc1)c1[nH]c2ccc(F)cc2c1-c1ccccc1` (stereo not given), the GI50 in the assay with HCT-116 colon is 1.87 µM; in the assay with HT29 colon it was 3.09 µM; in the assay with IGROV1 ovarian, 3.89 µM; with OVCAR-8 ovarian it was 4.34 µM; in the assay on RPMI-8226 leukemia, 2.13 µM; in the assay with SK-MEL-28 melanoma, 3.23 µM. Further, the GI50 in the assay with SN12C renal was 2.87 µM; with SNB-19 CNS it was 3.79 µM; in the assay with TK-10 renal it was 2.31 µM; with UACC-62 melanoma, 5.38 µM. The TGI in the assay with HCT-116 colon came to 4.11 µM; in the assay on HT29 colon, 10.5 µM; in the assay on IGROV1 ovarian it was 11.5 µM; in the assay with OVCAR-8 ovarian, 20.6 µM; in the assay with RPMI-8226 leukemia, 6.24 µM; in the assay with SK-MEL-28 melanoma it was 10.1 µM. The TGI in the assay with SN12C renal is 7.84 µM; in the assay with SNB-19 CNS it was 15.5 µM; in the assay with TK-10 renal it was 5.52 µM; with UACC-62 melanoma, 17.3 µM.

Consider `C=C(N=[N+]=[N-])c1cn(C2CC(O)C(CO)O2)c(=O)[nH]c1=O` (stereo not given), for which the TGI in the assay with HCT-116 colon, in the assay on HT29 colon, in the assay on IGROV1 ovarian, with OVCAR-8 ovarian, in the assay with RPMI-8226 leukemia and in the assay on SK-MEL-28 melanoma was above 100 µM in each case. The TGI in the assay with SN12C renal, in the assay with SNB-19 CNS, in the assay on TK-10 renal and in the assay with UACC-62 melanoma was above 100 µM throughout.

For `O=[N+]([O-])c1ccc(CS(=O)Cc2ccccc2)cc1` (stereo not given), the TGI with HCT-116 colon, in the assay with HT29 colon, with IGROV1 ovarian, in the assay on OVCAR-8 ovarian, with RPMI-8226 leukemia and with SK-MEL-28 melanoma was above 100 µM in each case. Besides, the TGI with SN12C renal, in the assay with SNB-19 CNS, in the assay on TK-10 renal and in the assay with UACC-62 melanoma was above 100 µM in each case.

Consider `CCOc1ccc(NC(=O)CC2SC(N)=NC2=O)cc1` (stereo not given), for which the TGI with HCT-116 colon, in the assay with HT29 colon, in the assay on IGROV1 ovarian, with OVCAR-8 ovarian, in the assay with RPMI-8226 leukemia and in the assay on SK-MEL-28 melanoma was above 100 µM each time. For the same molecule, the TGI in the assay with SN12C renal, in the assay on SNB-19 CNS, in the assay on TK-10 renal and in the assay on UACC-62 melanoma was above 100 µM in each case.

As for `Cc1ncc([N+](=O)[O-])n1CCNC(=O)CCCn1cnc([N+](=O)[O-])n1`, the TGI in the assay with HCT-116 colon, in the assay on HT29 colon, with IGROV1 ovarian, with OVCAR-8 ovarian, in the assay with RPMI-8226 leukemia and with SK-MEL-28 melanoma was above 100 µM throughout. Further, the TGI in the assay on SN12C renal is above 55.9 µM; in the assay with SNB-19 CNS it was above 100 µM; in the assay on TK-10 renal it was above 69.5 µM; in the assay on UACC-62 melanoma, above 100 µM.

The record behind these values is PubChem BioAssay (NCI).
